Experimental data published in patent US7704995B2 (Exelixis, Inc., priority 2003, dated 2010).

target: T1, Chk1 (Homo sapiens, UniProt O14757); experiment: Chk1 kinase assay: incorporation of γ-33P ATP into immobilized myelin basic protein; assay type: biochemical; conditions: Table 11, Chk1 only; class symbols A-D; read-out: Chk1 IC50
T1 construct: purchased Upstate Biotechnology
T1 sequence (O14757 1-476): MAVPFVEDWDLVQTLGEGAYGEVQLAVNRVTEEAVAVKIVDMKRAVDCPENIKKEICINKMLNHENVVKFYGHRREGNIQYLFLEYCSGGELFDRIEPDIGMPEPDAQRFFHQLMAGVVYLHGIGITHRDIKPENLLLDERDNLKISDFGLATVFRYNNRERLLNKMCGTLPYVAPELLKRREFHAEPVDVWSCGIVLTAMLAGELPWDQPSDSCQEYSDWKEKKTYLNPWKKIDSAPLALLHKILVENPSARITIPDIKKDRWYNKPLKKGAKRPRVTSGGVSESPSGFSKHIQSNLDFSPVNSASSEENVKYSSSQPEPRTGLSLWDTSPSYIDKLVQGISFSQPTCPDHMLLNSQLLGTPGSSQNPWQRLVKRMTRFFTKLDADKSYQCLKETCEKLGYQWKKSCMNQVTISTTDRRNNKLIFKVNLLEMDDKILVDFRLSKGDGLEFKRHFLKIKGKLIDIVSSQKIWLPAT
In short: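 Read-out is scintillation counting of 33P incorporated into plate-bound myelin basic protein. Chk1 runs at 10 nM enzyme with 10 μM ATP, Chk2 at 20 nM with 30 μM ATP, each for 1 hour at room temperature. Duplicate points; IC50 taken as 50% activity reduction, Ki computed from IC50.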

| IC50 | Structure (SMILES) |
| --- | --- |
| < 0.05 µM | Cc1cc(C)cc(CNC(=O)c2cccc(-c3cnc(N)c(C(=O)N[C@H]4CCCNC4)n3)c2)c1 [Example 1037, 3-amino-6-[3-({[(3,5-dimethylphenyl)methyl]amino}carbonyl)phenyl]-N-[(3S)-piperidin-3-yl]pyrazine-2-carboxamide] |
| < 0.05 µM | Nc1ncc(-c2cccc(CNC(=O)c3ccc(Br)cc3)c2)nc1C(=O)N[C@H]1CCCNC1 [Example 892, 3-amino-6-[3-({[(4-bromophenyl)carbonyl]amino}methyl)phenyl]-N-[(3S)-piperidin-3-yl]pyrazine-2-carboxamide] |
| < 0.05 µM | Nc1ncc(-c2cccc(C(=O)NCc3ccc(Cl)cc3)c2)nc1C(=O)N[C@H]1CCCNC1 [Example 861, 3-amino-6-[3-({[(4-chlorophenyl)methyl]amino}carbonyl)phenyl]-N-[(3S)-piperidin-3-yl]pyrazine-2-carboxamide] |
| < 0.05 µM | Cc1ccc(CNC(=O)c2cccc(-c3cnc(N)c(C(=O)N[C@H]4CCCNC4)n3)c2)c(C)c1 [Example 1038, 3-amino-6-[3-({[(2,4-dimethylphenyl)methyl]amino}carbonyl)phenyl]-N-[(3S)-piperidin-3-yl]pyrazine-2-carboxamide] |
| < 0.05 µM | CN(C)c1ccc(C(=O)NCc2cccc(-c3cnc(N)c(C(=O)N[C@H]4CCCNC4)n3)c2)cc1 [Example 903, 3-amino-6-{3-[({[4-(dimethylamino)phenyl]carbonyl}amino)methyl]phenyl}-N-[(3S)-piperidin-3-yl]pyrazine-2-carboxamide] |
| 1 to 10 µM | Nc1ncc(-c2cccc(C(=O)N[C@H]3c4ccccc4C[C@@H]3O)c2)nc1C(=O)N[C@H]1CCCCN(Cc2ccccc2)C1 [Example 969, 3-amino-6-[3-({[(1S,2S)-2-hydroxy-2,3-dihydro-1H-inden-1-yl]amino}carbonyl)phenyl]-N-[(3S)-1-(phenylmethyl)azepan-3-yl]pyrazine-2-carboxamide] |

More lines, now with the values behind:

| Structure (SMILES) | IC50 |
| --- | --- |
| Nc1ncc(-c2cccc(CNC(=O)Nc3ccc4c(c3)OCO4)c2)nc1C(=O)N[C@H]1CCCNC1 [Example 956, 3-amino-6-[3-({[(1,3-benzodioxol-5-ylamino)carbonyl]amino}methyl)phenyl]-N-[(3S)-piperidin-3-yl]pyrazine-2-carboxamide] | < 0.05 µM |
| Nc1ncc(-c2cccc(NC(=O)Cc3c(F)c(F)c(F)c(F)c3F)c2)nc1C(=O)N[C@H]1CCCNC1 [Example 887, 3-amino-6-(3-{[(pentafluorophenyl)acetyl]amino}phenyl)-N-[(3S)-piperidin-3-yl]pyrazine-2-carboxamide] | < 0.05 µM |

same assay, conditions: Table 11; Chk1 only; read-out: Chk1 IC50

| IC50 | Structure (SMILES) |
| --- | --- |
| 0.05 to 1 µM | CNC(=O)c1nc(-c2cccc(CNC3CCc4cc(-c5ccccc5)ccc43)c2)cnc1N (centres unmarked) [Example 491, 3-amino-N-methyl-6-(3-{[(5-phenyl-2,3-dihydro-1H-inden-1-yl)amino]methyl}phenyl)pyrazine-2-carboxamide] |
| 0.05 to 1 µM | C/C(=N\NCCO)c1nc(-c2cccc(C(=O)NCc3ccccc3)c2)cnc1N [Example 605, 3-{5-amino-6-[(1E)-N-(2-hydroxyethyl)ethanehydrazonoyl]pyrazin-2-yl}-N-(phenylmethyl)benzamide] |
| 0.05 to 1 µM | Nc1ncc(-c2cccc(CN[C@H]3CCc4ccccc43)c2)nc1C(=O)NCCCCO [Example 539, 3-amino-6-(3-{[(1S)-2,3-dihydro-1H-inden-1-ylamino]methyl}phenyl)-N-(4-hydroxybutyl)pyrazine-2-carboxamide] |
| ≥ 10 µM | CCNc1ncc(-c2cccc(C(=O)N[C@H]3CCc4ccccc43)c2)nc1C(=O)N[C@H]1CCN(CC)C1 [Example 707, 6-(3-{[(1S)-2,3-dihydro-1H-inden-1-ylamino]carbonyl}phenyl)-3-(ethylamino)-N-[(3S)-1-ethylpyrrolidin-3-yl]pyrazine-2-carboxamide] |
| 1 to 10 µM | Nc1ncc(-c2cccc(CN[C@H]3CCc4ccccc43)c2)nc1C(=O)NCCc1ccccc1 [Example 545, 3-amino-6-(3-{[(1S)-2,3-dihydro-1H-inden-1-ylamino]methyl}phenyl)-N-(2-phenylethyl)pyrazine-2-carboxamide] |
| 0.05 to 1 µM | CC(C)(C)c1nnc(-c2nc(-c3cccc(CN[C@H]4CCc5ccccc54)c3)cnc2N)[nH]1 [Example 582, 5-(3-{[(1S)-2,3-dihydro-1H-inden-1-ylamino]methyl}phenyl)-3-[5-(1,1-dimethylethyl)-4H-1,2,4-triazol-3-yl]pyrazin-2-amine] |
| 1 to 10 µM | CC(C)(C)OC(=O)N1CCC(N2CC[C@H](NC(=O)c3nc(-c4cccc(C(=O)NCc5ccccc5)c4)cnc3N)C2)CC1 [Example 686, 1,1-dimethylethyl 4-[(3S)-3-({[3-amino-6-(3-{[(phenylmethyl)amino]carbonyl}phenyl)pyrazin-2-yl]carbonyl}amino)pyrrolidin-1-yl]piperidine-1-carboxylate] |

Further lines, the compound ahead of its results:

| Structure (SMILES) | IC50 |
| --- | --- |
| C/C(=N\Nc1ccc(C(F)(F)F)cc1)c1nc(-c2cccc(C(=O)NCc3ccccc3)c2)cnc1N [Example 640, 3-(5-amino-6-{(1E)-N-[4-(trifluoromethyl)phenyl]ethanehydrazonoyl}pyrazin-2-yl)-N-(phenylmethyl)benzamide] | ≥ 10 µM |
| Nc1ncc(-c2cccc(CO)c2)nc1-c1nc(-c2ccccn2)n[nH]1 [Example 682, {3-[5-amino-6-(3-pyridin-2-yl-1H-1,2,4-triazol-5-yl)pyrazin-2-yl]phenyl}methanol] | 1 to 10 µM |
| N=C(NNc1ccccn1)c1nc(-c2cccc(C(=O)NCc3ccccc3)c2)cnc1N [Example 693, 3-{5-amino-6-[imino(2-pyridin-2-ylhydrazino)methyl]pyrazin-2-yl}-N-(phenylmethyl)benzamide] | ≥ 10 µM |
| Cc1nc(-c2nc(-c3cccc(C(=O)NCc4ccccc4)c3)cnc2N)nn1C [Example 671, 3-[5-amino-6-(1,5-dimethyl-1H-1,2,4-triazol-3-yl)pyrazin-2-yl]-N-(phenylmethyl)benzamide] | 1 to 10 µM |
| CNC(=O)c1cc(-c2cccc(CNC3CCc4c(F)cc(F)cc43)c2)cnc1N (centres unmarked) [Example 520, 2-amino-5-(3-{[(4,6-difluoro-2,3-dihydro-1H-inden-1-yl)amino]methyl}phenyl)-N-methylpyridine-3-carboxamide] | 0.05 to 1 µM |
| CNC(=O)c1nc(-c2cccc(CNC3CCc4c(F)cc(Br)cc43)c2)cnc1N (centres unmarked) [Example 470, 3-amino-6-(3-{[(6-bromo-4-fluoro-2,3-dihydro-1H-inden-1-yl)amino]methyl}phenyl)-N-methylpyrazine-2-carboxamide] | 0.05 to 1 µM |
| C/C(=N\Nc1ccc(C(C)C)cc1)c1nc(-c2cccc(C(=O)NCc3ccccc3)c2)cnc1N [Example 600, 3-(5-amino-6-{(1E)-N-[4-(1-methylethyl)phenyl]ethanehydrazonoyl}pyrazin-2-yl)-N-(phenylmethyl)benzamide] | 1 to 10 µM |

same assay, conditions: read-out: Chk1 IC50

| IC50 | Structure (SMILES) |
| --- | --- |
| 0.05 to 1 µM | CNC(=O)c1nc(-c2cccc(C(=O)Nc3ccc(OC)cc3)c2)cnc1N [Example 222, 3-amino-N-methyl-6-[3-({[4-(methyloxy)phenyl]amino}carbonyl)phenyl]pyrazine-2-carboxamide] |
| 0.05 to 1 µM | CNC(=O)c1nc(-c2cccc(C(=O)NCc3ccccc3F)c2)cnc1N [Example 289, 3-amino-6-[3-({[(2-fluorophenyl)methyl]amino}carbonyl)phenyl]-N-methylpyrazine-2-carboxamide] |
| 0.05 to 1 µM | CNC(=O)c1nc(-c2cccc(C(=O)NCCNc3ccccc3)c2)cnc1N [Example 412, 3-amino-N-methyl-6-[3-({[2-(phenylamino)ethyl]amino}carbonyl)phenyl]pyrazine-2-carboxamide] |

More lines, now with the values behind:

| Structure (SMILES) | IC50 |
| --- | --- |
| CNC(=O)c1nc(-c2cccc(C(=O)NCc3ccc4c(c3)OCO4)c2)cnc1N [Example 223, 3-amino-6-(3-{[(1,3-benzodioxol-5-ylmethyl)amino]carbonyl}phenyl)-N-methylpyrazine-2-carboxamide] | 0.05 to 1 µM |
| CNC(=O)c1nc(-c2cccc(CNCC(c3ccccc3)c3ccccc3)c2)cnc1N [Example 393, 3-amino-6-(3-{[(2,2-diphenylethyl)amino]methyl}phenyl)-N-methylpyrazine-2-carboxamide] | 0.05 to 1 µM |
| CNC(=O)c1nc(-c2cccc(C(=O)NCc3ccc(S(C)(=O)=O)cc3)c2)cnc1N [Example 255, 3-amino-N-methyl-6-{3-[({[4-(methylsulfonyl)phenyl]methyl}amino)carbonyl]phenyl}pyrazine-2-carboxamide] | 0.05 to 1 µM |
| CNC(=O)c1nc(-c2cccc(C(=O)NCc3ccncc3)c2)cnc1N [Example 123, 3-amino-N-methyl-6-(3-{[(pyridin-4-ylmethyl)amino]carbonyl}phenyl)pyrazine-2-carboxamide] | 0.05 to 1 µM |
| CNC(=O)c1nc(-c2cccc(C(=O)N(Cc3ccccc3)Cc3ccccc3)c2)cnc1N [Example 114, 3-amino-6-(3-{[bis(phenylmethyl)amino]carbonyl}phenyl)-N-methylpyrazine-2-carboxamide] | 1 to 10 µM |
| CNC(=O)c1nc(-c2cccc(NC(=O)c3ccco3)c2)cnc1N [Example 124, 3-amino-6-{3-[(furan-2-ylcarbonyl)amino]phenyl}-N-methylpyrazine-2-carboxamide] | 0.05 to 1 µM |
| CNC(=O)c1nc(-c2cccc(OCCN3CCC(C)CC3)c2)cnc1N [Example 175, 3-amino-N-methyl-6-(3-{[2-(4-methylpiperidin-1-yl)ethyl]oxy}phenyl)pyrazine-2-carboxamide] | 1 to 10 µM |
